What was measured:
[1] = system: FADD−/− Jurkat cells; assay: Necroptosis inhibition assay, TNF-α-induced necroptosis (CellTiter-Glo 2.0); format: cell-based, human; settings: TNF-α 15 ng/mL; for Necroptosis inhibition assay (Rescue %) 1 μM: compound 1 μM; for Necroptosis inhibition assay (Rescue %) 10 μM: compound 10 μM
Outline: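 Compound is added to cells at final concentrations of 0.1, 1 and 10 μM and left 30 minutes at room temperature. Necroptosis is induced with 15 ng/mL TNF-α, culture continues 20 to 24 hours at 37° C, and ATP-based luminescence reports viability.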

[2] = molecular target: T1, MLKL (Homo sapiens, UniProt Q8NB16); assay: Measurement of binding affinity with MLKL receptor (competitive binding assay, Kd); design: made in house; host or cells: HEK 293 cell line (T7 phage in E. coli BL21-derived host is also described)
T1 sequence (Q8NB16 1-471): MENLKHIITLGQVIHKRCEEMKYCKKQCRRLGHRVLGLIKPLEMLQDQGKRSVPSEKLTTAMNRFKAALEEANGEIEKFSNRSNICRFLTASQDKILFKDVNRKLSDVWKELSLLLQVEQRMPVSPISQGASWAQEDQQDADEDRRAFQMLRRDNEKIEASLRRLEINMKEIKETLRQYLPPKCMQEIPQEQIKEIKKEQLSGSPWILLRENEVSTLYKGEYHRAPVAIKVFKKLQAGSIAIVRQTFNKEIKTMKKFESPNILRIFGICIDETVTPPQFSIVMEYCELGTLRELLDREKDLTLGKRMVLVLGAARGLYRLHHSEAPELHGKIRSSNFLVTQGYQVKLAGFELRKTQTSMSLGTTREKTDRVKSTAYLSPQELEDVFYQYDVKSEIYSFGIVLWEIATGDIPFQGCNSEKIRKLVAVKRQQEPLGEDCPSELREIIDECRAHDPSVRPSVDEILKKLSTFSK
Outline: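 Competition binding of kinase tagged with DNA for qPCR detection, expressed in HEK 293 cells, against immobilized ligand on beads. Final DMSO 0.9%. Kd derived from kinase amount in eluates measured by qPCR.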

[3] = molecular target: T1, MLKL; assay: MLKL degradation assay in HepG2 cell line (western blot); format: cell-based; design: endogenous in cells; host or cells: HepG2 or HaCaT; settings: cell line not given; for Degradation assay (Degradation %) 1 μM: compound 1 μM; for Degradation assay (Degradation %) 10 μM: compound 10 μM
Outline: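 Chemiluminescent western blot signal reports remaining MLKL protein in HepG2 cells after 20-24 h treatment with compound at a final 1 or 10 μM. Equal protein (10-15 μg, BCA) is loaded per lane.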

| SMILES | Kd [2] [nM] | Degradation assay (Degradation %) 1 μM [3] [%] | Degradation assay (Degradation %) 10 μM [3] [%] | Necroptosis inhibition assay (Rescue %) 1 μM [1] [%] | Necroptosis inhibition assay (Rescue %) 10 μM [1] [%] |
| --- | --- | --- | --- | --- | --- |
| Nc1ncc(-c2cnn(C3CCN(CCCCCCNC(=O)CNc4ccc5c(c4)C(=O)N(C4CCC(=O)NC4=O)C5=O)CC3)c2)nc1C(=O)O[C@@H](C(=O)Nc1ccc(F)cc1)c1ccccc1 (stereo partly drawn) [TDH-132, (R)-2-((4-fluorophenyl)amino)-2-oxo-1-phenylethyl 3-amino-6-(1-(1-(6-(2-((2-(2,6-dioxopiperidin-3-yl)-1,3-dioxoisoindolin-5-yl)amino)acetamido)hexyl)piperidin-4-yl)-1H-pyrazol-4-yl)pyrazine-2-carboxylate] | 1.2 | 40.32 | 50.03 | 75.06 | 54.76 |
| Nc1ncc(-c2cnn(C3CCN(CCCCCCNC(=O)COc4cccc5c4C(=O)N(C4CCC(=O)NC4=O)C5=O)CC3)c2)nc1C(=O)O[C@@H](C(=O)Nc1ccc(F)cc1)c1ccccc1 (stereo partly drawn) [TDH-133, (R)-2-((4-fluorophenyl)amino)-2-oxo-1-phenylethyl 3-amino-6-(1-(1-(6-(2-((2-(2,6-dioxopiperidin-3-yl)-1,3-dioxoisoindolin-4-yl)oxy)acetamido)hexyl)piperidin-4-yl)-1H-pyrazol-4-yl)pyrazine-2-carboxylate] | 0.78 | 53.05 | 40.54 | 91.87 | 68.81 |
| Nc1ncc(-c2cnn(C3CCN(CCOCCNC(=O)COc4cccc5c4C(=O)N(C4CCC(=O)NC4=O)C5=O)CC3)c2)nc1C(=O)O[C@@H](C(=O)Nc1ccc(F)cc1)c1ccccc1 (stereo partly drawn) [TDH-134, (R)-2-((4-fluorophenyl)amino)-2-oxo-1-phenylethyl 3-amino-6-(1-(1-(2-(2-(2-((2-(2,6-dioxopiperidin-3-yl)-1,3-dioxoisoindolin-4-yl)oxy)acetamido)ethoxy)ethyl)piperidin-4-yl)-1H-pyrazol-4-yl)pyrazine-2-carboxylate] | 3 | 14.36 | 54.11 | 50.04 | 86.09 |
| Nc1ncc(-c2cnn(C3CCN(CCOCCOCCNC(=O)COc4cccc5c4C(=O)N(C4CCC(=O)NC4=O)C5=O)CC3)c2)nc1C(=O)O[C@@H](C(=O)Nc1ccc(F)cc1)c1ccccc1 (stereo partly drawn) [TDH-135, (R)-2-((4-fluorophenyl)amino)-2-oxo-1-phenylethyl 3-amino-6-(1-(1-(2-(2-(2-(2-((2-(2,6-dioxopiperidin-3-yl)-1,3-dioxoisoindolin-4-yl)oxy)acetamido)ethoxy)ethoxy)ethyl)piperidin-4-yl)-1H-pyrazol-4-yl)pyrazine-2-carboxylate] | 0.91 | 23.45 | 57.93 | 46.82 | 33.77 |
| Nc1ncc(-c2cnn(C3CCN(CC4CCN(C(=O)CNc5ccc6c(c5)C(=O)N(C5CCC(=O)NC5=O)C6=O)CC4)CC3)c2)nc1C(=O)O[C@@H](C(=O)Nc1ccc(F)cc1)c1ccccc1 (stereo partly drawn) [TDH-137, (R)-2-((4-fluorophenyl)amino)-2-oxo-1-phenylethyl 3-amino-6-(1-(1-((1-((2-(2,6-dioxopiperidin-3-yl)-1,3-dioxoisoindolin-5-yl)glycyl)piperidin-4-yl)methyl)piperidin-4-yl)-1H-pyrazol-4-yl)pyrazine-2-carboxylate] | 2.8 | 54.49 | 54.94 | 76.05 | 63.68 |

Further lines, with some results ahead:

| Kd [2] [nM] | Degradation assay (Degradation %) 1 μM [3] [%] | Degradation assay (Degradation %) 10 μM [3] [%] | SMILES | Necroptosis inhibition assay (Rescue %) 1 μM [1] [%] | Necroptosis inhibition assay (Rescue %) 10 μM [1] [%] |
| --- | --- | --- | --- | --- | --- |
| 7.1 | 32.68 | 57.68 | Nc1ncc(-c2cnn(C3CCN(CCOCCNC(=O)C4CCN(c5ccc6c(c5)C(=O)N(C5CCC(=O)NC5=O)C6=O)CC4)CC3)c2)nc1C(=O)O[C@@H](C(=O)Nc1ccc(F)cc1)c1ccccc1 (stereo partly drawn) [TDH-129, (R)-2-((4-fluorophenyl)amino)-2-oxo-1-phenylethyl 3-amino-6-(1-(1-(2-(2-(1-(2-(2,6-dioxopiperidin-3-yl)-1,3-dioxoisoindolin-5-yl)piperidine-4-carboxamido)ethoxy)ethyl)piperidin-4-yl)-1H-pyrazol-4-yl)pyrazine-2-carboxylate] | 49.22 | 67.79 |
| 11 | 58.3 | 24.87 | Nc1ncc(-c2cnn(C3CCN(CCOCCNc4cccc5c4C(=O)N(C4CCC(=O)NC4=O)C5=O)CC3)c2)nc1C(=O)O[C@@H](C(=O)Nc1ccc(F)cc1)c1ccccc1 (stereo partly drawn) [TDH-130, (R)-2-((4-fluorophenyl)amino)-2-oxo-1-phenylethyl 3-amino-6-(1-(1-(2-(2-((2-(2,6-dioxopiperidin-3-yl)-1,3-dioxoisoindolin-4-yl)amino)ethoxy)ethyl)piperidin-4-yl)-1H-pyrazol-4-yl)pyrazine-2-carboxylate] | 40.74 | 27.69 |
| 3.9 | 51.13 | 47.86 | Nc1ncc(-c2cnn(C3CCN(CCOCCNc4ccc5c(c4)C(=O)N(C4CCC(=O)NC4=O)C5=O)CC3)c2)nc1C(=O)O[C@@H](C(=O)Nc1ccc(F)cc1)c1ccccc1 (stereo partly drawn) [TDH-131, (R)-2-((4-fluorophenyl)amino)-2-oxo-1-phenylethyl 3-amino-6-(1-(1-(2-(2-((2-(2,6-dioxopiperidin-3-yl)-1,3-dioxoisoindolin-5-yl)amino)ethoxy)ethyl)piperidin-4-yl)-1H-pyrazol-4-yl)pyrazine-2-carboxylate] | 24.56 | 0.96 |
| 4.6 | 50.37 | 48.83 | Nc1ncc(-c2cnn(C3CCN(CC4CCN(C(=O)CNc5cccc6c5C(=O)N(C5CCC(=O)NC5=O)C6=O)CC4)CC3)c2)nc1C(=O)O[C@@H](C(=O)Nc1ccc(F)cc1)c1ccccc1 (stereo partly drawn) [TDH-136, (R)-2-((4-fluorophenyl)amino)-2-oxo-1-phenylethyl 3-amino-6-(1-(1-((1-((2-(2,6-dioxopiperidin-3-yl)-1,3-dioxoisoindolin-4-yl)glycyl)piperidin-4-yl)methyl)piperidin-4-yl)-1H-pyrazol-4-yl)pyrazine-2-carboxylate] | 48.59 | 40.66 |
| 4.2 | 40.46 | 25.69 | Nc1ncc(-c2cnn(C3CCN(CC4CCN(C(=O)C5CN(c6cccc7c6C(=O)N(C6CCC(=O)NC6=O)C7=O)C5)CC4)CC3)c2)nc1C(=O)O[C@@H](C(=O)Nc1ccc(F)cc1)c1ccccc1 (stereo partly drawn) [TDH-138, (R)-2-((4-fluorophenyl)amino)-2-oxo-1-phenylethyl 3-amino-6-(1-(1-((1-(1-(2-(2,6-dioxopiperidin-3-yl)-1,3-dioxoisoindolin-4-yl)azetidine-3-carbonyl)piperidin-4-yl)methyl)piperidin-4-yl)-1H-pyrazol-4-yl)pyrazine-2-carboxylate] | 70.53 | 60.57 |
| 4.9 |  | 78.56 | Nc1ncc(-c2cnn(C3CCN(CCOCCOCCOCCNC(=O)C4CCN(c5cccc6c5C(=O)N(C5CCC(=O)NC5=O)C6=O)CC4)CC3)c2)nc1C(=O)O[C@@H](C(=O)Nc1ccc(F)cc1)c1ccccc1 (stereo partly drawn) [TDH-139, (R)-2-((4-fluorophenyl)amino)-2-oxo-1-phenylethyl 3-amino-6-(1-(1-(1-(1-(2-(2,6-dioxopiperidin-3-yl)-1,3-dioxoisoindolin-4-yl)piperidin-4-yl)-1-oxo-5,8,11-trioxa-2-azatridecan-13-yl)piperidin-4-yl)-1H-pyrazol-4-yl)pyrazine-2-carboxylate] | 18.11 | 61.89 |
